Results from patent publication US10195186B2.

Key:
[1] = molecular target: human sortilin (S-18 cells) (Homo sapiens (Human), UniProt Q99523); assay: Endogenous PGRN endocytosis assay (PGRN ELISA of media); type: cell-based; details: PGRN allowed to accumulate 24 hrs, compounds added day 2, further 24 hrs
Experimental: Stable cell lines expressing human sortilin (S-18) were generated by transfecting HEK293 cells with a human sortilin expression vector, followed by few rounds of passage with the appropriate selection agent.
On day1, S-18 cells are seeded in a 96 well plate. After 24 hrs, media is completely replaced with either media or one of the test compounds. All compounds were tested at 10 μM unless otherwise specified. Media is collected on day 3 and analyzed using PGRN ELISA (R&D). Cell viability is assessed by Cell TiterGlo (ProMega) to evaluate cytotoxic effect of the compounds.
On day 2, the compounds are added to the cells and incubated for a further 24 hrs, when the media is harvested and PGRN levels analyzed using ELISA kit.

hSortilin = hSortilin (Homo sapiens (Human), UniProt Q99523); assay: hSortilin affinity assay: displacement of 3H-neurotensin binding, SPA format; details: read-out: hSortilin NTS Binding, Inhibition at 50 μM
hSortilin, sequence (Q99523 34-755): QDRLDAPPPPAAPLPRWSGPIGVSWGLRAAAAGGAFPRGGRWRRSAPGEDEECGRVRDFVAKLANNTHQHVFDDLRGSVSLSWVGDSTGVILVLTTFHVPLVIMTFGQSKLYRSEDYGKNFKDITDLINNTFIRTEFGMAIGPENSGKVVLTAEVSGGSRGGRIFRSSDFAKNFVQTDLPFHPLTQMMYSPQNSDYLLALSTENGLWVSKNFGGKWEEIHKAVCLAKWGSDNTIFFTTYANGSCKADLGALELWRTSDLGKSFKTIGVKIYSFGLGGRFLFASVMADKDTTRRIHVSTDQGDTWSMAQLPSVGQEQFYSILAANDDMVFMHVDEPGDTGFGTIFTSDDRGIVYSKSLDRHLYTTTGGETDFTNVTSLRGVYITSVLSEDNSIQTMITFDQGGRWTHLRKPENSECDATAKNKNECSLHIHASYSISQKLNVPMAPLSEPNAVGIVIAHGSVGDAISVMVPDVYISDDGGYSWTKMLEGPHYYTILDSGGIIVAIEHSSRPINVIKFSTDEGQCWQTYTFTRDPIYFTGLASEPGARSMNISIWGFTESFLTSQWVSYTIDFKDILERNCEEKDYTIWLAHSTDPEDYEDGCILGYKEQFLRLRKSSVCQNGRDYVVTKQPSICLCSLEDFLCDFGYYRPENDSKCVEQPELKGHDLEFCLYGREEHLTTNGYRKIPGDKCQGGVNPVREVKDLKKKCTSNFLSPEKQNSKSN

human sortilin (S-18 cells), sequence (Q99523 78-831): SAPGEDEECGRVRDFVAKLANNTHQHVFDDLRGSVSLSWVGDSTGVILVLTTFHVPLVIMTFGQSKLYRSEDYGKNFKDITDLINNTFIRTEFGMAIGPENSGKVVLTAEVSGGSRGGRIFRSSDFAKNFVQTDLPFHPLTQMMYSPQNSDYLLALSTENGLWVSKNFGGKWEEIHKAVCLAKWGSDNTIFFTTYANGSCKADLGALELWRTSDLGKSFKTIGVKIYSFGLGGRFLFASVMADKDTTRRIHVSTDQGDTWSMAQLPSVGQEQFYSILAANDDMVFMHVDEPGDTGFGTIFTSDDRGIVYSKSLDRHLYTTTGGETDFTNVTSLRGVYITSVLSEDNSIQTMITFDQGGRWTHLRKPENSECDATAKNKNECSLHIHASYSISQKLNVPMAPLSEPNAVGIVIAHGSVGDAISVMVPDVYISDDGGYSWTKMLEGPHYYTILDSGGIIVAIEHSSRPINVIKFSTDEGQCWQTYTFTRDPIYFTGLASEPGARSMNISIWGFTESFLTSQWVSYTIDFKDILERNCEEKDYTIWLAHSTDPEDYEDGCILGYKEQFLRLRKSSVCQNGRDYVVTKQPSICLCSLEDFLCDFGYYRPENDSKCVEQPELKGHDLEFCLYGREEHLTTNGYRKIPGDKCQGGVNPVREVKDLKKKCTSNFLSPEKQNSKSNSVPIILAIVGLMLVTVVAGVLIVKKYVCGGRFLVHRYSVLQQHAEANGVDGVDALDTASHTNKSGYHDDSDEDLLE

Compound | PGRN levels in cell culture media, competition paradigm (FIG. 1) [1] | inhibition at 50 µM (hSortilin) [%]
Cc1cccc(NC(=O)c2ccc(C(F)(F)F)cc2C(=O)O)n1 [Example 1, N-(6-Methyl-pyridin-2-yl)-5-trifluoromethyl-phthalamic acid] | increase in PGRN levels | 
Cc1cccnc1NC(=O)c1ccc(Br)cc1C(=O)O [Example 27, 5-Bromo-N-(3-methyl-pyridin-2-yl)-phthalamic acid] |  | 64
Cc1ccc(NC(=O)c2ccc(Br)cc2C(=O)O)cn1 [Example 31, 5-Bromo-N-(6-methyl-pyridin-3-yl)-phthalamic acid] |  | 70
scrambled neurotensin: scrambled neurotensin, sequence LIYPRNEYELRKP (SEQ ID NO:1); does not bind sortilin, negative control (Scrambled Human Neurotensin) [reference compound] | did not have any effect | 
